The record followed here is ChEMBL document CHEMBL1201862, “PubChem BioAssay data set” (2004).

In general, IC50 refers to the concentration needed to halve the response being measured. As a reminder, the AC50 is the concentration giving half of the maximal activity seen.

For assay [1], the target named is T1, Tyrosine-protein phosphatase non-receptor type 22 (Homo sapiens, UniProt Q9Y2R2).
T1 sequence (Q9Y2R2 whole entry): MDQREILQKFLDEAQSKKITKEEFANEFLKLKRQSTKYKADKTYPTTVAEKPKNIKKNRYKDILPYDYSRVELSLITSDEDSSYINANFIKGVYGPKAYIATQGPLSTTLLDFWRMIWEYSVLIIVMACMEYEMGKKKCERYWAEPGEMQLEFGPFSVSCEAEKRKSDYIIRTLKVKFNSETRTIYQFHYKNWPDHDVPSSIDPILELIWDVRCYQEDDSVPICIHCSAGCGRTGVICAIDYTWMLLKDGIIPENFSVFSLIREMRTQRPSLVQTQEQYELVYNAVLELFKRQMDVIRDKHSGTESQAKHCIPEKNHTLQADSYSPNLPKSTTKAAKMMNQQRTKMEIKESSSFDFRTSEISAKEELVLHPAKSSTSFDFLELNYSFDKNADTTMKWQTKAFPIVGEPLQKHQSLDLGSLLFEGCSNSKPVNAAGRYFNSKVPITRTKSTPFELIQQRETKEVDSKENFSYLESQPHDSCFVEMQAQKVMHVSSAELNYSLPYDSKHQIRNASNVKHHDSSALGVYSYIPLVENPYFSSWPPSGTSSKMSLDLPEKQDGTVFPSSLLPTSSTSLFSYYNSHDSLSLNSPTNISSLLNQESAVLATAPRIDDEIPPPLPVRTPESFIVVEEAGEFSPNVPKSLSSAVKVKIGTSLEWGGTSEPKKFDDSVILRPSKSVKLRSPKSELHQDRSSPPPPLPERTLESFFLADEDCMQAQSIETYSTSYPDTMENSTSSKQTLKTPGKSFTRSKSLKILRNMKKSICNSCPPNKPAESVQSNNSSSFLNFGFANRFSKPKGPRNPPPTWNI
Briefly: SAR LYP1 Fluorescent Assay using pCAP substrate for In Vitro dose response studies - Set 4. [Related pubchem assays (depositor defined):AID1779, AID1784]. It is filed as functional.

The next assay has as its target T2, Aminopeptidase N (Plasmodium falciparum FcB1/Columbia, UniProt O96935).
T2 sequence (O96935 whole entry): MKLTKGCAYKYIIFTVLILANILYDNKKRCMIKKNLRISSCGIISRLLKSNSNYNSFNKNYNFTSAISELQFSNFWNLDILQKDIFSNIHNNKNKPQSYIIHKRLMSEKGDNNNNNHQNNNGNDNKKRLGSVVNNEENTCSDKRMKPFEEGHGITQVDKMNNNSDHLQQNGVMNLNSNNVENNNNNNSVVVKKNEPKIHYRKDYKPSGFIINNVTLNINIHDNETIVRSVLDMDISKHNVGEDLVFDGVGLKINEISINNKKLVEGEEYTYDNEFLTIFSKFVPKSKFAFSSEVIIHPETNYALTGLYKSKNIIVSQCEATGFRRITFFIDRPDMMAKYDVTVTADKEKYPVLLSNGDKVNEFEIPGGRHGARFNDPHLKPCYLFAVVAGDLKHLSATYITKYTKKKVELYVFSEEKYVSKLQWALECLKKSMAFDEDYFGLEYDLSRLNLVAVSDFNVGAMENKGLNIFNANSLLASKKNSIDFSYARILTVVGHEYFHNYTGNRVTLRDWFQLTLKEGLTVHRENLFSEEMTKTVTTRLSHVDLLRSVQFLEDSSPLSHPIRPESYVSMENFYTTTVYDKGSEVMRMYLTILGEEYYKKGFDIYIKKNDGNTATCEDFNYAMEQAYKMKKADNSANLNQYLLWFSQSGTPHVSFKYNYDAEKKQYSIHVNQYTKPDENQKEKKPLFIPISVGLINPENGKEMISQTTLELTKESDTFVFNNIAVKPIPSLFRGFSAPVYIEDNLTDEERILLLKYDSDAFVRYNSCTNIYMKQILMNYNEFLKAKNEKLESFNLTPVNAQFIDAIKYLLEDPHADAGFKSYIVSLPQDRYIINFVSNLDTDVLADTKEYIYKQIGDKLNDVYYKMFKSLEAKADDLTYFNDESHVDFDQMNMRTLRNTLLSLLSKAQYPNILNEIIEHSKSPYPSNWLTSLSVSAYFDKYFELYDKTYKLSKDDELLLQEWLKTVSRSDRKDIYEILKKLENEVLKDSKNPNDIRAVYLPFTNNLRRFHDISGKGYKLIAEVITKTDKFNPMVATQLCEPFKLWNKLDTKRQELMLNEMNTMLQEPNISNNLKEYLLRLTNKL
The experiment in a line: malaria alanyl aminopeptidase activity blockers – biochemical, fluorogenic H-Leu-NHMec substrate, 1536-well (AID 1445). More on the design: species or system Plasmodium falciparum 3D7, 3D7.

Assay [2] addresses T3, Lysine-specific demethylase 4A (Homo sapiens, UniProt O75164).
T3 sequence (O75164 whole entry): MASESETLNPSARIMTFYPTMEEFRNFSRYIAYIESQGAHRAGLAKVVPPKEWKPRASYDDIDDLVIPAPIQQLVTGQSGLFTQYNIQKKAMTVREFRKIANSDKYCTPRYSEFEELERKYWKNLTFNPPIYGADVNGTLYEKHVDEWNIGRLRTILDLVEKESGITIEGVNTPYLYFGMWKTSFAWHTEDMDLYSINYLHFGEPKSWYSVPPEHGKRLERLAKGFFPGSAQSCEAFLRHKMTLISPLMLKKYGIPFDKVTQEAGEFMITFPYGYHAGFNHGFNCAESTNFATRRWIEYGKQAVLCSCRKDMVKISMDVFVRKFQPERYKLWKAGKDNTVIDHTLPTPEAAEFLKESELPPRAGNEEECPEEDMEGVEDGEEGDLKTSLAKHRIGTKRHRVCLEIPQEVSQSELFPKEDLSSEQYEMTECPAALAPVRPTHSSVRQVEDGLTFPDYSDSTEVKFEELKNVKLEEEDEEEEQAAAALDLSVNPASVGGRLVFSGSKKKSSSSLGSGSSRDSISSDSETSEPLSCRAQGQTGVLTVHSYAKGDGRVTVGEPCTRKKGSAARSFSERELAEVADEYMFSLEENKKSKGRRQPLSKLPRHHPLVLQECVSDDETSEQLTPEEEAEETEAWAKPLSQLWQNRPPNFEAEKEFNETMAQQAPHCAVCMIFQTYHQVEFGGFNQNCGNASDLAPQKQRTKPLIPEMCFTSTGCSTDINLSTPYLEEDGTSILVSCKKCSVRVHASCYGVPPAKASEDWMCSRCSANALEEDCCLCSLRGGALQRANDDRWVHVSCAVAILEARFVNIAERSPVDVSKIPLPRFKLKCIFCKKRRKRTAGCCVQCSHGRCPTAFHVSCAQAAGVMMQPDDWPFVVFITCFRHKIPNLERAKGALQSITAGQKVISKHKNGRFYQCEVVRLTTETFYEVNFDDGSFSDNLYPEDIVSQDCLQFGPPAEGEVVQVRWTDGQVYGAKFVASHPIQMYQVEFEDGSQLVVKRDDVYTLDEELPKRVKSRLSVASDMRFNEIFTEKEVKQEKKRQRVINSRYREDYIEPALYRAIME
Briefly: inhibition of JMJD2A H3K9me3 demethylation – biochemical, DELFIA europium, cherry-picked samples, selectivity assay for GASC-1 inhibitor project, dose response (AID 488840).

The structures appear in SMILES notation. Activity calls are given as the source filed them.

In the case of `O=C(O)COc1ccc(/C=N/NC(=O)c2ccc(-c3csc(Nc4ccc(Cl)cc4)n3)cc2)cc1`, the 50% inhibitory concentration (IC50) in assay [1] was 527 nM (active). `CC(/C=C1\SC(=S)N(NS(=O)(=O)c2ccccc2)C1=O)=C\c1ccccc1`: the IC50 at Aminopeptidase N is 45.4 µM (active). In the case of `CSc1ccc(C=NNc2ccc(S(=O)(=O)Nc3ccccc3C(=O)O)cc2[N+](=O)[O-])cc1`, the AC50 in assay [2] is 12.4 µM (active).
